Assay results reported in patent US7402600B2, “Nitroderivatives of cardiovascular agents” (NicOx S.A., priority 1999, dated 2008).

Experiments:
gastrointestinal mucosa = experiment: Test 1 (NEM): gastric tolerability of precursor drugs in rats treated or not with N-ethylmaleimide
Description: The animals (rats) are distributed in the following groups (no. 10 animals for group):
• 1° group: treatment: only carrier (aqueous suspension 1% w/v of carboxymethylcellulose, dose: 5 ml/Kg when the drug is administered by os, or a physiologic solution when parenterally administered, i.e. by subcutaneous, intraperitoneal, intravenous or intramuscular route), • 2° group: treatment: carrier as above defined+NEM, B) Groups Treated with the Drug: • group I: treatment: carrier+drug, • group II: treatment: carrier+drug+NEM.
The administration routes are those known for the drug, and can be the oral or subcutaneous, intraperitoneal, intravenous or intramuscular route.
(§1) The animals are sacrificed after 24 hours and then one proceeds to the evaluation of the damage to the gastrointestinal mucosa.
Test 1—Experimental Model in Vivo with N-ethylmaleimide (NEM): Study of the Gastric Tolerability of Some Drugs Screened as Precursors of the Compounds of the Invention.
The animals (rats, weight about 200 g) are distributed in the following groups (No. 10 animals for group):
• 1° group: treatment: only carrier (aqueous suspension 1% w/v of carboxymethylcellulose, dose: 5 ml/Kg when the drug is administered by os, physiologic solution when by parenteral route), • 2° group: treatment: carrier+NEM B) Groups Administered with Each Drug: • group I: treatment: carrier+drug, • group II: treatment: carrier+drug+NEM.
The drug is administered one hour later, in suspension in the carrier. Animals are sacrificed after 24 hours and evaluation of the damage to the gastrointestinal mucosa is made by counting the number of rats, inside each group, with lesions to the stomach at a visual inspection. The total number of said rats is then divided by the total number of rats of the group and multiplied by 100.

[1] = system: gastrointestinal mucosa, GPT, blood pressure; conditions: rat, in vivo; for Gastroenteropathy % without L-NAME: 4 weeks
Description: The endothelial dysfunction is evaluated by determining the damage to the gastrointestinal mucosa, the hepatic damage and blood hypertension induced by administration of L-NAME.
The animals (rats) are divided in groups as herein below shown. The group receiving L-NAME is treated for 4 weeks with said compound dissolved at a concentration of 400 mg/litre in drinking water. The following groups are constituted (No. 10 animals for group):
(§2) • 1° group: only carrier (aqueous suspension 1% w/v of carboxymethylcellulose, dose: 5 ml/Kg when the drug is administered by os, phisiologic solution when administered parenterally), • 2° group: carrier+L-NAME, B) Groups Administered with the Drug: • 3° group: carrier+drug, • 4° group: carrier+drug+L-NAME.
The administration routes are those known for the drug, and can be the oral or subcutaneous, intraperiteneal, intravenous or intramuscular route. […] The drug is administered once a day for 4 weeks.
At the end of the four weeks treatment access to water is prevented and after 24 hours the animals are sacrificed.
One hour before the sacrifice blood-pressure is determined, and a blood pressure increase is taken as an evaluation of the damage to vascular endothelium. […] The hepatic damage is determined by evaluation of the glutamic-pyruvic transaminase (GPT increase) after sacrifice.
Test 3-Experimental in Vivo Model with N^w-nitro-L-arginine-methyl ester (L-NAME): Gastric Tolerability (Gastrointestinal Damage Incidence), Hepatic (GPT Dosage, Glutamic-pyruvic Transaminase) and Cardiovascular (Blood Pressure) Tolerability of Some Drugs Screened as Precursors of the Compounds of the Invention.
The endothelial dysfunction is evaluated by determining the damage induced by L-NAME administration to the gastrointestinal mucosa, the hepatic damage (GPT increase), and the vascular endothelium or cardiovascular damage as blood hypertension.
The animals (rats, average weight 200 g) are divided in groups as herein below described. The group receiving L-NAME is treated for 4 weeks with said compound dissolved at the concentration of 400 mg/litre in drinking water. The following groups (No. 10 animals for group) are constituted:
as §2, with “group: treatment:” for “group:”, “physiologic” for “phisiologic”, “by parenteral route),” for “administered parenterally),”, “Treated” for “Administered”
Each drug is administered once a day for 4 weeks.
At the end of the four weeks access to water is prevented and after 24 hours the animals are sacrificed.
One hour before the sacrifice blood pressure is determined and a blood pressure increase is taken as an indication of a damage being occurred to vascular endothelium.
The hepatic damage is determined by evaluation after the sacrifice of the glutamic-pyruvic transaminase (GPT increase).
The % gastric lesions have been determined as in Test 1.

rats = experiment: in vivo; conditions: rats not treated with NEM, single dose, s.c.
Description: as §1

[2] = Test 4: inhibition of radical production from DPPH; conditions: tested substance 100 μM in methanol, 30 minutes, absorbance 517 nm
Description: Test 4 is a colorimetric test which must not be satisfied by the precursor of B or B1 (precursor of the X2 or X2a of the formulas (I) and (II) respectively). The inhibition of the production of radicals from DPPH (2,2-diphenyl-1-picryl-hydrazyl) is described in M. S. Nenseter et Al., Atheroscler. Thromb. 15, 1338-1344, 1995. 100 μM solutions in methanol of the tested substances are prepared, and an aliquot of each of said solutions is added to a DPPH solution in methanol 0.1 M. After having stored the solutions at room temperature away from light for 30 minutes, their absorbances are read at the wave length of 517 nm, together with that of the corresponding DPPH solution at the same concentration. The absorbance decrease with respect to that of the solution of DPPH at the same concentration of the test solutions is determined. The effectiveness of the tested compound in inhibiting formation of radicals by DPPH is expressed by the following formula: (1−AS/AC)×100 wherein AS and AC are respectively the absorbance values of the solution containing the test compound together with DPPH and of the solution containing only DPPH. Test 4 is satisfied when the inhibition is equal or greater than 50%.
Test 4: Inhibition of the Radical Production from DPPH of Some Substances Used as Precursors of B or B1 (Ref. Formulas I and II of the Invention)
The method is based on a calorimetric test in which DPPH (2,2-diphenyl-1-picryl-hydrazyl) is used as the compound-forming radicals (M. S. Nenseter et Al., Atheroscler. Thromb. 15, 1338-1344, 1995).
Solutions in methanol of the tested substances at a final concentration 100 μM are initially prepared. 0.1 ml of each of these solutions are added to aliquots of 1 ml of a methanol solution 0.1 M of DPPH and then the final volume is brought to 1.5 ml. After having stored the solutions at room temperature away from light for 30 minutes, the absorbance at the wave length of 517 nm is read. It is determined the absorbance decrease with respect to the absorbance of a solution containing the same concentration of DPPH.
The efficacy of the test compound to inhibit the production of radicals, or antiradical activity, is expressed by the following formula: (1−AS/AC)×100 wherein AS and AC are, respectively, the absorbance values of the solution containing the test compound together+DPPH and of the solution containing only DPPH.

[3] = Test 5: inhibition of radical production from FeII (deoxyribose degradation); conditions: 10^-4 M methanolic solution, 37° C. one hour, absorbance 532 nm
Description: Test 5 is a […] test wherein 0.1 ml aliquots of 10^−4 M methanolic solutions of the tested products are added to test tubes containing a solution formed by 0.2 ml of 2 mM desoxyribose, 0.4 ml of phosphate buffer pH 7.4 100 mM and 0.1 ml of 1 mM Fe^II(NH4)2(SO4)2 in 2 mM HCl. The test tubes are then maintained at 37° C. for one hour. Then in each test tube 0.5 ml of a 2.8% solution in water of trichloroacetic acid and 0.5 ml of an aqueous 0.1 M solution of thiobarbituric acid are added, in the order. A reference blank is formed by adding to a test tube containing only the above described aqueous solution of reactants 0.1 ml of methanol. The test tubes are closed and heated in an oil bath at 100° C. for 15 minutes. A pink coloration is developed the intensity of which is proportional to the quantity of desoxyribose undergone to radical oxidative degradation. The solutions are cooled at room temperature and their absorbances are read at 532 nm against the blank. The inhibition induced by the precursor of B or B1 or C=-Tc-Y—H in the confront of radical production by Fe^II is determined by means of the following formula: (1−As/Ac)×100 wherein As and Ac are respectively the absorbance values of the solution containing the tested compound+the iron salt and that of the solution containing only the iron salt, the compound meets test 5 when the inhibition percentage of radical production as above defined from the precursor of B or B1 or C=-Tc-Y—H is higher than or equal to 50%. […]
0.1 ml aliquots of 10^−4 M methanolic solutions of 4-thiazolidin carboxylic acid and 2-oxo-4-thiazolidin carboxylic acid are added to test tubes containing an aqueous solution formed by mixing 0.2 ml of 2 mM deoxyribose, 0.4 ml of buffer phosphate pH 7.4 100 mM and 0.1 ml of 1 mM Fe^II(NH4)2(SO4)2 in 2 mM HCl. […] A pink coloration develops the intensity of which is proportional to the quantity of deoxyribose undergone to radical oxidative degradation. The solutions are cooled at room temperature and their absorbances at 532 nm are read against the blank. […]

[4] = system: Human endothelial cells of the umbilical vein; experiment: Test 2 (CIP): apoptosis (DNA fragmentation) induced by cumene hydroperoxide in endothelial cells; type: cell-based; conditions: drug 10^-4 M; for inhibition of apoptosis induced by CIP (in words, t Student p<0.01): CIP 5 mM
Description: Test 2 (CIP): Protection parameter of endothelial cell against the oxidative stress induced by cumene hydroperoxide (CIP).
Human endothelial cells of the umbilical vein are prepared according to an usual standard procedure. Fresh umbilical veins are filled with a 0.1% by weight collagenase solution and incubated at 37° C. for 5 minutes.
The cells are collected from the perfusate by centrifugation and harvested in culture flasks T-75, pretreated with human fibronectin. The cells are then harvested in the same medium, further added with 10 ng/ml of bovine hypothalamic growth factor. When the cells of the primary cell culture (i.e. that directly obtained from ex-vivo) form a single layer of confluent cells (about 8,000,000 cells/flask), the culture is stopped and the layers washed and trypsinized. The cellular suspensions are transferred into the wells of a cell culture plate having 24 wells, half of which is then additioned with the same culture medium containing the drug at a 10^−4M concentration, and harvested in a thermostat at 37° C. at a constant moisture. Only the cells coming from said first sub-cultures are used for the experiments with cumene hydroperoxide (CIP).
Before starting the test, the cellular culture medium is removed and the cellular layers are carefully washed with a physiologic solution at a temperature of 37° C. The wells of the culture plate are then incubated for one hour with CIP at a 5 mM concentration in the culture medium. […] 5 replicates for each sample are carried out.
Human endothelial cells of the umbilical vein are prepared according to a standard method. Fresh umbilical veins are filled with a collagenase solution 0.1% by weight and incubated at 37° C. for 5 minutes.
The cells are collected from the perfusate by centrifugation at 800 rpm and harvested in culture flasks T-75, pretreated with human fibronectin. Cells are then harvested in the same medium, added with bovine hypothalamic growth factor (100 ng/ml). When the cells of the primary cell culture (the cells directly removed from ex-vivo umbilical vein) form a single layer of confluent cells (about 8,000,000 cells/flask), harvesting is stopped and the layers are washed and trypsinized. The cellular suspensions are transferred into wells of a culture plate having 24 wells, half of said wells being added with the same culture medium containing the drug at a 10^−4M concentration, and harvested in a thermostat at 37° C. at a constant moisture (90%), CO2=5%. When the drug is not soluble in the culture medium, it is formerly dissolved in a small amount of dimethylsulphoxide. The maximum amount of dimethylsulphoxide which can be added to the culture medium is 0.5%. Only the cells coming from these first subcultures are used for the tests with cumene hydroperoxide (CIP). The cells are identified as endothelial cells by morphological examination and by the specific immunological reaction towards factor VIII; these cultures did never show contaminations from myocytes or fibroblasts.
Before starting the test, the cellular culture medium is removed and the cellular layers are carefully washed with a standard physiologic solution buffered with phosphate 0.1 M pH 7.0, at the temperature of 37° C. The content of each well is then incubated for one hour with a CIP suspension in the culture medium at a 5 mM concentration. Evaluation of the cellular damage (apoptosis) is carried out by determining the percent variation of the DNA fragmentation in the cultures containing the drug+CIP with respect to the controls treated with CIP only. […] The fluorescence of each sample was determined on 5 replicates. Statistic evaluation has been made with t Student test (p<0.01).

gastric mucosa = experiment: Example F6: gastric tolerability of invention compounds versus precursor drugs, with or without L-NAME; type: in vivo, rats; conditions: rat, in vivo, 4 weeks
From the text: Gastric Tolerability Test of the Compounds According to the Invention in the Confront of the Corresponding Precursor Drugs in Conditions of Endothelial Dysfunctions Induced by L-NAME (N^w-nitro-L-arginine-methyl ester).

in vivo = conditions: rat, in vivo
Description: as §1

With `CCCCC(C)(O)C/C=C/[C@H]1[C@H](O)CC(=O)[C@@H]1CCCCCCC(=O)OC` (mixture of isomers) [Misoprostol] the “Gastro-enteropathy (% incidence) with NEM” value (gastrointestinal mucosa; rats, NEM 25 mg/kg s.c. one hour before drug at maximum tolerated dose, sacrifice after 24 hours) was 0%, the “Gastro-enteropathy (% incidence) without NEM” value (gastrointestinal mucosa; rats, single maximum tolerated dose, sacrifice after 24 hours, without NEM) was 0% and the “GPT % without L-NAME” value [1] was 100%. For the same molecule, the “Gastroenteropathy % without L-NAME” value [1] was 0% and the “maximum tolerated dose (dose (mg/Kg)/admin. route)” value (rats) was 0.5/s.c. mg/Kg.

With `O=C(O)C1CSCN1` (stereo not shown) [4-thiazolidin carboxylic acid] the “% inhibition radical production from DPPH” value [2] was 0%, the “% inhibition radical production from DPPH” value ([2]; listed as 4-Thiazolidincarboxylic acid) was “does not inhibit at any extent” and the “% Radical Inhibition from Fe^II” value [3] was 100%.

In the case of `Nc1c(Br)cc(Br)cc1CN[C@H]1CC[C@H](O)CC1` [Ambroxol, 4-[(2-amino-3,5-dibromophenyl)methylamino]cyclohexanol], the “Gastro-enteropathy (% incidence) without NEM” value (gastrointestinal mucosa; rat, in vivo, 24 h) is reported as 0%, the activity at 100 µM ([4]; Homo sapiens, Endothelial cell, 1 h, CIP 5 mM for one hour, DNA fragmentation, read-out: Apoptosis % with respect to the controls treated only with CIP) is reported as 70% and the “inhibition of apoptosis induced by CIP (in words, t Student p<0.01)” value (“inhibition … (in words, t Student p<0.01)” below) [4] is reported as “inhibit apoptosis”. The “% gastropathy, animals not treated with L-NAME” value (gastric mucosa) was 60%, the “% gastropathy, animals treated with L-NAME” value (gastric mucosa) was 80% and the MTD at 24 h (in vivo; po) was 25 mg/kg.

In the case of `COc1ccc2[nH]c([S+]([O-])Cc3ncc(C)c(OC)c3C)nc2c1` (stereo not shown) [Omeprazol], the “Gastro-enteropathy (% incidence) without NEM” value (gastrointestinal mucosa; rat, in vivo, 24 h) is reported as 0%, the “inhibition … (in words, t Student p<0.01)” value [4] is reported as “do not significantly inhibit apoptosis” and the “GPT % without L-NAME” value [1] is reported as 100%. The “Gastroenteropathy % without L-NAME” value [1] was 0% and the MTD at 24 h (in vivo; sc) was 30 mg/kg.

For `Nc1c2c(nc3ccccc13)CCCC2` [Tacrine], the “Gastro-enteropathy (% incidence) without NEM” value (gastrointestinal mucosa; rat, in vivo, 24 h) was 0%, the “inhibition … (in words, t Student p<0.01)” value [4] was “do not significantly inhibit apoptosis” and the “% gastropathy, animals not treated with L-NAME” value (gastric mucosa) was 80%. The “% gastropathy, animals treated with L-NAME” value (gastric mucosa) was 70% and the MTD at 24 h (in vivo; sc) was 1 mg/kg.

With `N[C@@H](Cc1c[nH]cn1)C(=O)O` [histidine] the “% inhibition radical production from DPPH” value [2] was 0% and the “% Radical Inhibition from Fe^II” value [3] was 90%.

With `O=C(O)CCC(=O)O` [succinic acid] the “% inhibition radical production from DPPH” value [2] was 0% and the “% Radical Inhibition from Fe^II” value [3] was 90%.
